Measured values from US12304912B2, “Fused bicyclic RAF inhibitors and methods for use thereof” (Jazz Pharmaceuticals Ireland Limited, priority 2020, dated 2025).

Key:
WiDr cells = assay: WiDr CellTiter-Glo 3D cell proliferation assay; type: cell-based; settings: Homo sapiens; WiDr cells, 3D proliferation; read-out: 3D WiDr pGI50 (converted)
[1] = system: RAF dimers in HCT-116 cells; assay: HCT-116 AlphaLISA SureFire pERK1/2 cellular assay (dimer); type: cell-based; settings: Homo sapiens, HCT-116; HCT116 cells, dimer, 1 hr; read-out: pERK HCT116 dimer (1 hr) plC50 (converted)
How it was run: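 HCT-116 (KRAS G13D) cells, 30,000/well, pretreated 1 h with 1 μM Encorafenib to induce RAF dimers, washed, then dosed 1 h at 37° C with compound (10-point, top 10 μM, 1/2 log steps) in growth medium. pERK1/2 (T202/Y204) measured by AlphaLISA SureFire; absolute IC50 versus DMSO control.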

[2] = Microsomal stability assay, mouse liver microsomes (MLM); type: in vitro ADME; settings: 0.5 mg/mL protein, 1 μM substrate, 37° C.
How it was run: (§1)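 Half-life and CLint come from the ln(% remaining)–time slope, with remaining compound quantified by LC-MS/MS after ice-cold solvent quench of timed samples. Incubations used 1 μM test compound and 0.5 mg·mL^−1 human or mouse liver microsomal protein at 37° C.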

[3] = Plasma protein binding assay, mouse plasma (mPPB); type: in vitro ADME; settings: 5 μM, equilibrium dialysis 4 hours at 37° C.
How it was run: (§2)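 Equilibrium dialysis of 5 μM compound in previously frozen human or mouse plasma against phosphate buffer, 4 h at 37 °C. Both chambers quantified by LC-MS/MS; % free = (1−((PC−PF)/PC))×100.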

[4] = system: constitutive ERK phosphorylation in WiDr cells; assay: WiDr AlphaLISA SureFire pERK1/2 cellular assay; type: cell-based, human; settings: Homo sapiens; WiDr cells, 2 hr, Abs; read-out: pERK WiDr (2 hr) Abs pIC50 (converted)
Procedure: The human HCT-116 colorectal carcinoma cell line (ATCC CCL-247) endogenously expresses the KRAS^G13D mutation, which leads to constitutive activation of the MAP kinase pathway and phosphorylation of ERK. […] Assay read outs took place 2 or 24 hours after dosing with compounds. On the first day, HCT-116 cells were harvested, resuspended in growth medium (McCoys5A with Glutamax (Life Technologies 36600021) and 10% heat-inactivated fetal bovine serum (Sigma F9665)), and counted. Cells were plated in 100 μl per well in each well of a 96-well culture dish (Sigma CLS3598) to a final density of 30,000 (2 hr read) or 15,000 (24 hr read) cells per well and incubated over night at 37° C. and 5% CO2. On day 2, the growth medium was exchanged for dosing medium (McCoys5A with Glutamax (Life Technologies 36600021) and 1% heat-inactivated fetal bovine serum (Sigma F9665)) and the cells were dosed with compounds to produce a 10-point dose response, where the top concentration was 1 μM and subsequent concentrations were at 1/3 log dilution intervals. A matched DMSO control was included. The cells were subsequently incubated for either 2 or 24 hours at 37° C. and 5% CO2. After incubation, media was removed and the cells were incubated with lysis buffer containing phosphatase inhibitors for 15 minutes at room temperature. Cell lysates were transferred to a 12 area 96 well white Optiplate™ (Perkin Elmer 6005569) and incubated with anti-mouse IgG acceptor beads, a biotinylated anti-ERK1/2 rabbit antibody recognizing both phosphorylated and non-phosphorylated ERK1/2, a mouse antibody targeted to the Thr202/Tyr204 epitope and recognizing phosphorylated ERK proteins only, and streptavidin-coated donor beads. The biotinylated antibody binds to the streptavidin-coated donor beads and the phopsho-ERK1/2 antibody binds to the acceptor beads. Plates were read on an EnVision reader (Perkin Elmer) and excitation of the beads at 680 nm with a laser induced the release of singlet oxygen molecules from the donor beads that trigger energy transfer to the acceptor beads in close proximity, producing a signal that can be measured at […]. Both antibodies bound to phosphorylated ERK proteins, bringing the donor and acceptor beads into close proximity. All data were analyzed using the Dotmatics or GraphPad Prism software packages. Inhibition of ERK phosphorylation was assessed by determination of the absolute IC50 value, which is defined as the concentration of compound required to decrease the level of phosphorylated ERK proteins by 50% when compared to DMSO control.
WiDr AlphaLISA SureFire pERK1/2 Cellular Assay
The human WiDr colorectal adenocarcinoma cell line (ATCC CCL-218) endogenously expresses the BRAF^V600E mutation, which leads to constitutive activation of the MAP kinase pathway and phosphorylation of ERK. […] The main procedure is essentially the same as for HCT-116 cells (above), with the following adjustments to the growth medium (Eagle's Minimum Essential Medium (Sigma M2279) with 1× Glutamax (Life Technologies 35050038), 1× Sodium-Pyruvate (Sigma S8636), and 10% heat-inactivated fetal bovine serum (Sigma F9665)), the dosing medium (Eagle's Minimum Essential Medium (Sigma M2279) with 1× Glutamax (Life Technologies 35050038), 1× Sodium-Pyruvate (Sigma S8636), and 1% heat-inactivated fetal bovine serum (Sigma F9665)), and the seeding densities (2 hr: 50,000 cells per well; 24 hr: 35,000 cells per well). Moreover, the compounds were dosed in 1/2 log dilution intervals with the top concentration of 10 μM.

[5] = Microsomal stability assay, human liver microsomes (HLM); type: in vitro ADME; settings: 0.5 mg/mL protein, 1 μM substrate, 37° C.
How it was run: as §1

[6] = Plasma protein binding assay, human plasma (hPPB); type: in vitro ADME; settings: 5 μM, equilibrium dialysis 4 hours at 37° C.
How it was run: as §2

Question: With `Cc1ccc(-c2c[nH]c(C3COc4ccc(Oc5ccnc6c5CCC(=O)N6)cc4C3)n2)s1` (stereo not drawn) [Compound 110] as the molecule, how does the GI50 (WiDr cells) read?
Answer: 200 nM

Question: And the IC50 [1]?
Answer: 50.1 nM

Question: What about the microsomal CLint at 1 μM [2] of the same molecule?
Answer: 55.5 µL/min/mg

Question: And the “mPPB (% free)” value [3]?
Answer: 0.1 % free

Question: What about the IC50 [4] of the same molecule?
Answer: 70.8 nM

Question: What about the microsomal CLint at 1 μM [5] of the same molecule?
Answer: 48.3 µL/min/mg

Question: What about the “hPPB (% free)” value [6] of the same molecule?
Answer: 0.2 % free

Question: For `CCc1cc(-c2c[nH]c(C3COc4ccc(Oc5ccnc6c5CCC(=O)N6)cc4C3)n2)n(C)n1` (stereo not drawn) [Compound 111], which GI50 (WiDr cells) is on record?
Answer: 1020 nM

Question: And the IC50 [1]?
Answer: 107 nM

Question: What about the microsomal CLint at 1 μM [2] of the same molecule?
Answer: 26.9 µL/min/mg

Question: What about the “mPPB (% free)” value [3] of the same molecule?
Answer: 1.73 % free

Question: What about the IC50 [4] of the same molecule?
Answer: 324 nM

Question: And the microsomal CLint at 1 μM [5]?
Answer: 48.1 µL/min/mg

Question: What about the “hPPB (% free)” value [6] of the same molecule?
Answer: 1.91 % free

Question: What does the source list for `Cc1cc(-c2c[nH]c(C3COc4ccc(Oc5ccnc6c5CCC(=O)N6)cc4C3)n2)ccn1` (stereo not drawn) [Compound 117, 5-[3-[4-(2-methyl-4-pyridyl)-1H-imidazol-2-yl]chroman-6-yl]oxy-3,4-dihydro-1H-1,8-naphthyridin-2-one]?
Answer: GI50 (WiDr cells): 708 nM; IC50 [1]: 110 nM; microsomal CLint at 1 μM [2]: 13.4 µL/min/mg; mPPB (% free) [3]: 2.3 % free; IC50 [4]: 589 nM; microsomal CLint at 1 μM [5]: 43.3 µL/min/mg; hPPB (% free) [6]: 2.6 % free

Question: With `CCc1cc(-c2c[nH]c(C3COc4ccc(Oc5ccnc6c5CCC(=O)N6)cc4C3)n2)ccn1` (stereo not drawn) [Compound 118, 5-[3-[4-(2-ethyl-4-pyridyl)-1H-imidazol-2-yl]chroman-6-yl]oxy-3,4-dihydro-1H-1,8-naphthyridin-2-one] as the molecule, how does the GI50 (WiDr cells) read?
Answer: 1170 nM

Question: What about the IC50 [1] of the same molecule?
Answer: 148 nM

Question: What about the microsomal CLint at 1 μM [2] of the same molecule?
Answer: 40 µL/min/mg

Question: What about the “mPPB (% free)” value [3] of the same molecule?
Answer: 1.0 % free

Question: What about the IC50 [4] of the same molecule?
Answer: 398 nM

Question: And the microsomal CLint at 1 μM [5]?
Answer: 81.2 µL/min/mg

Question: And the “hPPB (% free)” value [6]?
Answer: 1.3 % free

Question: What does the source list for `COc1csc(-c2c[nH]c(C3COc4ccc(Oc5ccnc6c5CCC(=O)N6)cc4C3)n2)c1` (stereo not drawn) [Compound 122, 5-[3-[5-(4-methoxy-2-thienyl)-1H-imidazol-2-yl]chroman-6-yl]oxy-3,4-dihydro-1H-1,8-naphthyridin-2-one]?
Answer: GI50 (WiDr cells): 513 nM; IC50 [1]: 162 nM; microsomal CLint at 1 μM [2]: 70.8 µL/min/mg; mPPB (% free) [3]: 0.21 % free; IC50 [4]: 355 nM; microsomal CLint at 1 μM [5]: 80.3 µL/min/mg; hPPB (% free) [6]: 0.23 % free

Question: With `COc1ccsc1-c1c[nH]c(C2COc3ccc(Oc4ccnc5c4CCC(=O)N5)cc3C2)n1` (stereo not drawn) [Compound 123] as the molecule, how does the GI50 (WiDr cells) read?
Answer: 53.7 nM

Question: What about the IC50 [1] of the same molecule?
Answer: 58.9 nM

Question: And the microsomal CLint at 1 μM [2]?
Answer: 126 µL/min/mg

Question: And the “mPPB (% free)” value [3]?
Answer: 0.25 % free

Question: What about the IC50 [4] of the same molecule?
Answer: 33.9 nM

Question: And the microsomal CLint at 1 μM [5]?
Answer: 97.5 µL/min/mg

Question: What about the “hPPB (% free)” value [6] of the same molecule?
Answer: 0.23 % free

Question: For `CCn1nc(C)cc1-c1c[nH]c(C2COc3ccc(Oc4ccnc5c4CCC(=O)N5)cc3C2)n1` (stereo not drawn) [Compound 124, 5-[3-[4-(2-ethyl-5-methyl-pyrazol-3-yl)-1H-imidazol-2-yl]chroman-6-yl]oxy-3,4-dihydro-1H-1,8-naphthyridin-2-one], which GI50 (WiDr cells) is on record?
Answer: 1450 nM

Question: What about the IC50 [1] of the same molecule?
Answer: 269 nM

Question: And the microsomal CLint at 1 μM [2]?
Answer: 28.2 µL/min/mg

Question: What about the “mPPB (% free)” value [3] of the same molecule?
Answer: 3.9 % free

Question: And the IC50 [4]?
Answer: 661 nM

Question: And the microsomal CLint at 1 μM [5]?
Answer: 65.8 µL/min/mg

Question: And the “hPPB (% free)” value [6]?
Answer: 2.7 % free

Question: What does the source list for `Cc1cc(-c2c[nH]c(C3COc4ccc(Oc5ccnc6c5CCC(=O)N6)cc4C3)n2)n(CC(F)(F)F)n1` (stereo not drawn) [Compound 126, 5-[3-[4-[5-methyl-2-(2,2,2-trifluoroethyl)pyrazol-3-yl]-1H-imidazol-2-yl]chroman-6-yl]oxy-3,4-dihydro-1H-1,8-naphthyridin-2-one]?
Answer: GI50 (WiDr cells): 15100 nM; IC50 [1]: 245 nM; microsomal CLint at 1 μM [2]: 55.7 µL/min/mg; mPPB (% free) [3]: 0.7 % free; IC50 [4]: 1020 nM; microsomal CLint at 1 μM [5]: 121 µL/min/mg; hPPB (% free) [6]: 1.0 % free

Question: What does the source list for `Cn1ncc2ccc(-c3c[nH]c(C4COc5ccc(Oc6ccnc7c6CCC(=O)N7)cc5C4)n3)cc21` (stereo not drawn) [Compound 130, 5-[3-[4-(1-methylindazol-6-yl)-1H-imidazol-2-yl]chroman-6-yl]oxy-3,4-dihydro-1H-1,8-naphthyridin-2-one]?
Answer: GI50 (WiDr cells): 1660 nM; IC50 [1]: 166 nM; microsomal CLint at 1 μM [2]: 23.5 µL/min/mg; mPPB (% free) [3]: 0.2 % free; IC50 [4]: 603 nM; microsomal CLint at 1 μM [5]: 23.6 µL/min/mg; hPPB (% free) [6]: 0.1 % free
